According to ChEMBL document CHEMBL3351760, “Homology modeling and explicit membrane molecular dynamics simulation to delineate the mode of binding of thiazolidinediones into FFAR1 and the mechanism of receptor activation” (Bioorg Med Chem Lett, 2014):

biological target: Free fatty acid receptor 1 (Homo sapiens, UniProt O14842); experiment: Agonist activity at FFAR1 (unknown origin) assessed as increase in ERK1/2 MAP kinase phosphorylation
Sequence (O14842 whole entry): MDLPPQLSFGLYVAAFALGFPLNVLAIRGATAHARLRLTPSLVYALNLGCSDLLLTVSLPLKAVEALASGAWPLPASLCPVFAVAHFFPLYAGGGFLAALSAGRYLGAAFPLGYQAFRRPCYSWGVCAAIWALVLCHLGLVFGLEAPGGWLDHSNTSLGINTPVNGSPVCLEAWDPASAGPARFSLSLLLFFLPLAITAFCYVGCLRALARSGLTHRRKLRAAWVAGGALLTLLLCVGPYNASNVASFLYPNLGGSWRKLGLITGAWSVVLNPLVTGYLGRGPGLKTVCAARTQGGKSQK

| SMILES | EC50 |
| --- | --- |
| CCc1ccc(CCOc2ccc(CC3SC(=O)NC3=O)cc2)nc1 (stereo not drawn) [PIOGLITAZONE] | 813 µM |
| O=C(O)CCc1ccc(NCc2cccc(Oc3ccccc3)c2)cc1 [GW9508] | 0.316 µM |
| CN(CCOc1ccc(CC2SC(=O)NC2=O)cc1)c1ccccn1 (stereo not drawn) [ROSIGLITAZONE] | 11.5 µM |
